Experimental data reported in ChEMBL document CHEMBL1201862, “PubChem BioAssay data set” (2004).
“And” between values parts separate entries of the source, which are not always exact repeats. Identical values can stand only once.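 1) Cells in 96-well plates. 2) Compound, 48 h, 5 concentrations. 3) Linear interpolation between surrounding doses. 4) Unreached endpoint = highest concentration. Here, GI50 denotes the concentration required for 50% inhibition of growth.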 The source made the active and inactive calls. Rule as the data show it: active = GI50 up to about 1.1 µM and inactive = higher.

Key:
Assay in all cases: NCI-60 cell line screen, 48 h
U-251 = test system: U-251
NCI-H23 = test system: NCI-H23
A498 = test system: A498
NCI-H460 = test system: NCI-H460
OVCAR-8 = test system: OVCAR-8
Hs-578T = test system: Hs-578T
CAKI-1 = test system: CAKI-1
HOP-62 = test system: HOP-62
LOX IMVI = test system: LOX IMVI
SK-MEL-28 = test system: SK-MEL-28
MOLT-4 = test system: MOLT-4
PC-3 = test system: PC-3
SF-539 = test system: SF-539
SK-MEL-2 = test system: SK-MEL-2
OVCAR-4 = test system: OVCAR-4
MCF7 = test system: MCF7
SF-268 = test system: SF-268
MDA-N = test system: MDA-N
DU-145 = test system: DU-145
SR = test system: SR

SMILES	GI50 (U-251)	GI50 (NCI-H23)	GI50 (A498)	GI50 (NCI-H460)	GI50 (OVCAR-8)	GI50 (Hs-578T)	GI50 (CAKI-1)	GI50 (HOP-62)	GI50 (LOX IMVI)	GI50 (SK-MEL-28)	GI50 (MOLT-4)	GI50 (PC-3)	GI50 (SF-539)	GI50 (SK-MEL-2)	GI50 (OVCAR-4)	GI50 (MCF7)	GI50 (SF-268)	GI50 (MDA-N)	GI50 (DU-145)	GI50 (SR)
CN1CC[N+](C)=C1c1ccccc1	> 100 µM (inactive)	> 100 µM (inactive)	> 100 µM (inactive)	> 100 µM (inactive)	> 100 µM (inactive)	> 100 µM (inactive)	> 100 µM (inactive)	> 100 µM (inactive)	> 100 µM (inactive)	> 100 µM (inactive)	> 100 µM (inactive)	> 100 µM (inactive)	> 100 µM (inactive)	> 100 µM (inactive)	> 100 µM (inactive)	> 100 µM (inactive)	> 100 µM (inactive)	> 100 µM (inactive)	> 100 µM (inactive)	> 100 µM (inactive)
C#C[C@]1(O)CC[C@H]2[C@@H]3CCC4=C/C(=N/OC(=O)c5cccc6c(=O)c7ccccc7[nH]c56)CC[C@@H]4[C@H]3CC[C@@]21C	62.1 µM (inactive)	40.6 µM (inactive)	> 100 µM (inactive)	37.2 µM (inactive)	42.1 µM (inactive)	54.1 µM (inactive)	37.5 µM (inactive)	> 100 µM (inactive)	34 µM (inactive)	62.4 µM (inactive)	16.2 µM (inactive)	37.5 µM (inactive)	29.5 µM (inactive)	57.4 µM (inactive)	> 100 µM (inactive)	42.5 µM (inactive)	80 µM (inactive)	43.2 µM (inactive)	61.9 µM (inactive)	12.1 µM (inactive)
CS[C@]12C(=O)C[C@@]3(C)[C@@H](CC[C@]3(O)C(=O)CO)[C@@H]1CCC1=CC(=O)CC[C@@]12C	> 100 µM (inactive)	> 100 µM (inactive)	> 100 µM (inactive)	> 100 µM (inactive)	> 100 µM (inactive)	> 100 µM (inactive)	> 100 µM (inactive)	> 100 µM (inactive)	> 100 µM (inactive)	> 100 µM (inactive)	49.8 µM (inactive)	55 µM (inactive)	> 100 µM (inactive)	> 100 µM (inactive)	> 100 µM (inactive)	> 100 µM (inactive)	> 100 µM (inactive)	26.6 µM (inactive)	> 100 µM (inactive)	35 µM (inactive)
Cn1c(=O)c2[nH]c(C3CC(=O)CC(c4nc5c([nH]4)c(=O)n(C)c(=O)n5C)N3)nc2n(C)c1=O (stereo not drawn)	91 µM (inactive)	> 100 µM (inactive)	> 100 µM (inactive)	> 100 µM (inactive)	> 100 µM (inactive)	> 100 µM (inactive)	> 100 µM (inactive)	> 100 µM (inactive)	> 100 µM (inactive)	> 100 µM (inactive)	71.3 µM (inactive)	> 100 µM (inactive)	> 100 µM (inactive)	> 100 µM (inactive)	> 100 µM (inactive)	71.3 µM (inactive)	> 100 µM (inactive)	> 100 µM (inactive)	> 100 µM (inactive)	95.1 µM (inactive)
CO/N=C1\CC(NC(=O)C(F)(F)F)c2ccsc21 (stereo not drawn)	> 100 µM (inactive)	> 100 µM (inactive)	> 100 µM (inactive)	> 100 µM (inactive)	> 100 µM (inactive)	> 100 µM (inactive)	> 100 µM (inactive)	> 100 µM (inactive)	> 100 µM (inactive)	> 100 µM (inactive)	> 100 µM (inactive)	> 100 µM (inactive)	> 100 µM (inactive)	> 100 µM (inactive)	> 100 µM (inactive)	> 100 µM (inactive)	> 100 µM (inactive)	> 100 µM (inactive)	> 100 µM (inactive)	> 100 µM (inactive)
Nc1c2c(nc3ccccc13)CCCc1ccccc1-2	11.3 µM (inactive)	16.3 µM (inactive)	8.43 µM (inactive)	2.81 µM (inactive)	14.1 µM (inactive)	22.6 µM (inactive)	15.9 µM (inactive)	12.4 µM (inactive)	8.69 µM (inactive)	9.75 µM (inactive)	16.6 µM (inactive)	14.3 µM (inactive)	8.83 µM (inactive)	13.4 µM (inactive)	20.1 µM (inactive)	13.1 µM (inactive)	16.9 µM (inactive)	4.17 µM (inactive)	21.5 µM (inactive)	7.35 µM (inactive)
CC(=O)OC1COC(n2c(N)c(C#N)c(-c3ccccc3)c(C#N)c2=S)C(OC(C)=O)C1OC(C)=O (stereo not drawn)	48.8 µM (inactive) and 53.1 µM (inactive)		24.8 µM (inactive) and 33.2 µM (inactive)	46.8 µM (inactive) and 65.9 µM (inactive)	31.6 µM (inactive) and 56.8 µM (inactive)	45.3 µM (inactive) and 37.4 µM (inactive)	39.4 µM (inactive) and 40.7 µM (inactive)	> 100 µM (inactive)	25.2 µM (inactive) and 27.6 µM (inactive)	55.7 µM (inactive) and 36.6 µM (inactive)	24.6 µM (inactive) and 24.3 µM (inactive)	43.9 µM (inactive) and 40.1 µM (inactive)	40.2 µM (inactive) and 32.4 µM (inactive)	20 µM (inactive) and 27.2 µM (inactive)	41 µM (inactive) and 38.7 µM (inactive)	34.4 µM (inactive) and 29.9 µM (inactive)	36 µM (inactive)	26.6 µM (inactive) and 27.8 µM (inactive)	47.9 µM (inactive) and 38.4 µM (inactive)	19.6 µM (inactive) and 22.2 µM (inactive)
CSc1cc(Cl)c(C)cc1S(=O)(=O)NC(=O)NNc1ccc(F)cc1	> 100 µM (inactive)		> 100 µM (inactive)	> 100 µM (inactive)	> 100 µM (inactive)	> 100 µM (inactive)	> 100 µM (inactive)	> 100 µM (inactive)	> 100 µM (inactive)	> 100 µM (inactive)	> 100 µM (inactive)	> 100 µM (inactive)	> 100 µM (inactive)	> 100 µM (inactive)	> 100 µM (inactive)	> 100 µM (inactive)	> 100 µM (inactive)	> 100 µM (inactive)	> 100 µM (inactive)	> 100 µM (inactive)
CC(=O)c1c(=O)n(-c2ccc(C)cc2)c(O)c2c(N)n[nH]c12	> 100 µM (inactive)	> 100 µM (inactive)	> 100 µM (inactive)	> 100 µM (inactive)	> 100 µM (inactive)	> 100 µM (inactive)	> 100 µM (inactive)		> 100 µM (inactive)	> 100 µM (inactive)	> 100 µM (inactive)	> 100 µM (inactive)	> 100 µM (inactive)	> 100 µM (inactive)	> 100 µM (inactive)	> 100 µM (inactive)	> 100 µM (inactive)	> 100 µM (inactive)	> 100 µM (inactive)	> 100 µM (inactive)
CCC1NC(=O)C(NC(=O)c2ncccc2O)C(C)OC(=O)C(c2ccccc2)NC(=O)C2CC(=O)CCN2C(=O)C(Cc2ccccc2)N(C)C(=O)C2CCCN2C1=O (stereo not drawn)	> 100 µM (inactive)	> 100 µM (inactive)	> 100 µM (inactive)	> 100 µM (inactive)	> 100 µM (inactive)	> 100 µM (inactive)	> 100 µM (inactive)	> 100 µM (inactive)	> 100 µM (inactive)	> 100 µM (inactive)		> 100 µM (inactive)	> 100 µM (inactive)	> 100 µM (inactive)	57.1 µM (inactive)	> 100 µM (inactive)	> 100 µM (inactive)	> 100 µM (inactive)	> 100 µM (inactive)	37.4 µM (inactive)
COc1cc([C@@H]2c3cc4c(cc3[C@@H](Nc3ccc([N+](=O)[O-])cc3C(=O)c3ccccc3)[C@H]3COC(=O)[C@H]23)OCO4)cc(OC)c1OC	0.354 µM (active)	0.428 µM (active)	0.415 µM (active)	0.258 µM (active)	0.515 µM (active)	5.05 µM (inactive)	0.381 µM (active)	0.282 µM (active)	0.281 µM (active)		0.306 µM (active)	0.344 µM (active)	0.201 µM (active)	3.28 µM (inactive)	> 41.8 µM (inactive)	0.26 µM (active)	0.472 µM (active)	0.0687 µM (active)	0.434 µM (active)	0.177 µM (active)
O=C1CCC(CCc2nc3ccccc3[nH]2)(c2ccccc2)C(=O)N1 (stereo not drawn)	> 100 µM (inactive)	> 100 µM (inactive)	> 100 µM (inactive)	> 100 µM (inactive)	> 100 µM (inactive)	29.7 µM (inactive)	> 100 µM (inactive)	> 100 µM (inactive)	> 100 µM (inactive)	> 100 µM (inactive)		> 100 µM (inactive)	> 100 µM (inactive)	> 100 µM (inactive)	> 100 µM (inactive)	> 100 µM (inactive)	> 100 µM (inactive)	> 100 µM (inactive)	> 100 µM (inactive)	> 100 µM (inactive)
O=CNC(Cc1c[nH]cn1)C(=O)O (stereo not drawn)	> 100 µM (inactive)	> 100 µM (inactive)	> 100 µM (inactive)	> 100 µM (inactive)	> 100 µM (inactive)	> 100 µM (inactive)	> 100 µM (inactive)	> 100 µM (inactive)	> 100 µM (inactive)	> 100 µM (inactive)		> 100 µM (inactive)	> 100 µM (inactive)	> 100 µM (inactive)	> 100 µM (inactive)	> 100 µM (inactive)	> 100 µM (inactive)	> 100 µM (inactive)	> 100 µM (inactive)	> 100 µM (inactive)
